These results are taken from BindingDB's records for patent US12071420 (Hoffmann-La Roche, 2024).

This assay deals with Cannabinoid receptor 2 (Homo sapiens, UniProt P34972). The assay is described as follows: Radioligand Binding Assay. On the procedure:
The affinity of the compounds of the invention for cannabinoid CB1 receptors was determined using recommended amounts of membrane preparations (PerkinElmer) of human embryonic kidney (HEK) cells expressing the human CNR1 or CNR2 receptors in conjunction with 1.5 or 2.6 nM [3H]-CP-55,940 (Perkin Elmer) as radioligand, respectively. Binding was performed in binding buffer (50 mM Tris, 5 mM MgCl2, 2.5 mM EDTA, and 0.5% (wt/vol) fatty acid free BSA, pH 7.4 for CB1 receptor and 50 mM Tris, 5 mM MgCl2, 2.5 mM EGTA, and 0.1% (wt/vol) fatty acid free BSA, pH 7.4 for CB2 receptor) in a total volume of 0.2 ml for 1 h at 30° C. shaking. The reaction was terminated by rapid filtration through microfiltration plates coated with 0.5% polyethylenimine (UniFilter GF/B filter plate; Packard). Bound radioactivity was analyzed for Ki using nonlinear regression analysis (Activity Base, ID Business Solution, Limited), with the Kd values for [3H]CP55,940 determined from saturation experiments. The compounds of formula (I) show an excellent affinity for the CB2 receptor.

Sequence of Cannabinoid receptor 2 (P34972 whole entry): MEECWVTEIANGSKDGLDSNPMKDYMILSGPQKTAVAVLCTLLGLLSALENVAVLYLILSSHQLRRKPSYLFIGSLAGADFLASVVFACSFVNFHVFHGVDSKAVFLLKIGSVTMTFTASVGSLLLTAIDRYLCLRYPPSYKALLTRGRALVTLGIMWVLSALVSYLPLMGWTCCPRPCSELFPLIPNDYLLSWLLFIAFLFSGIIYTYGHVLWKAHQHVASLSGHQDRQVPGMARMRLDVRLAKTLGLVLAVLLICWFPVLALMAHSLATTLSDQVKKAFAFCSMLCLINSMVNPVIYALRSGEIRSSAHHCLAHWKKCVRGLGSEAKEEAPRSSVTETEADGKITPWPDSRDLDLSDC

As a reminder, the Ki is a measure of affinity in units of concentration, obtained from inhibition or displacement. A higher Ki goes with a looser hold on the target. `COC1CN(c2ccc(C(=O)N[C@H](COCF)CC(C)C)nc2OCC2CC2)C1` [US12071420, Example 25] displayed a Ki of 14 nM.
